Test results taken from publication PMC12376758, “Restoration of CB1 receptor function in hippocampal GABAergic neurons rescues memory deficits in Huntington’s disease models” (Translational Neurodegeneration, 2025).

What was measured:
BDNF = experiment: Western blot of BDNF in hippocampal lysates; assay type: in vivo, mouse; conditions: R6/1 mice, WIN 1 mg/kg i.p. 10 days
CA1 pyramidal neurons [1] = experiment: Golgi-Cox dendritic spine density analysis; assay type: in vivo, mouse; conditions: R6/1 mice, WIN 1 mg/kg i.p. sub-chronic
Experimental: Golgi-Cox impregnation was performed using the Rapid Golgistain Kit (FD Neurotechnologies, Columbia, MD) following the manufacturer's instructions. Mice were euthanized by cervical dislocation, and brains were rapidly removed. The two hemispheres were separated and incubated in a solution of A/B for 2 weeks. After this period, the brains were transferred to solution C for an additional 7 days. The brains were then processed using a cryostat to obtain 100-μm sections, which were mounted on gelatin-coated slides and left to dry for 24 h.
The sections were stained with the solutions provided in the kit and subsequently dehydrated before being mounted with DPX. Bright field images were acquired using a Leica AF6000 epifluorescence microscope with a × 63 numerical aperture objective for dendritic spine analysis. Segments of apical dendrites from hippocampal CA1 pyramidal neurons were selected for analysis. Dendritic spine density was manually quantified using the ImageJ Plug-in Cell Counter. Spines were marked in the appropriate focal plane preventing double counting, and only fully impregnated pyramidal neurons with their soma entirely within the thickness of the section were included. Dendritic segments ranging from 20 to 60 μm in length were analyzed. At least 60 dendrites per group from at least three mice per genotype were counted.

WT mice [2] = experiment: Open field test in WT mice (WIN dose selection); assay type: in vivo, mouse; conditions: 13-week-old WT mice, WIN 1 and 4 mg/kg i.p., 10 days
Experimental: NOLT was conducted in a quadrangular open field (40 cm × 40 cm, 40 cm high) with a light intensity of 40 lx at controlled room conditions (19–22 °C, 40%–60% humidity). Mice were first habituated to the arena, which was devoid of objects but included spatial cues attached to the walls, for 15 min per session over two consecutive days. During this phase, spontaneous locomotor activity, as well as the time and the distance spent in the periphery versus the center, were measured. On the third day (NOLT training), two identical objects (A and A′) were placed in adjacent corners of the arena, and mice were allowed to explore for 10 min. […] Animal movements were tracked and recorded using the SMART® Junior software (Panlab, Spain). Exploration times were recorded to calculate the discrimination index as follows: discriminationindex=Timeexploringnovelobject-Timeexploringfamiliarobject/Timeexploringbothobjects×100\%
Exploration in the NORT followed the same conditions as described for the NOLT. […] During this phase, spontaneous locomotor activity and time/distance spent in the periphery versus the center of the arena were measured. […] Animal movements were tracked and recorded with the SMART® Junior software (Panlab, Spain). Exploration times were recorded and used to calculate the discrimination index as indicated above. […]

WT mice [3] = experiment: Y-maze in WT mice (WIN dose selection); assay type: in vivo, mouse; conditions: 13-week-old WT mice, WIN 1 and 4 mg/kg i.p., 10 days
Experimental: Spontaneous working memory was assessed using the Y-maze test. Mice were habituated to the testing room 1 h prior to the session. During the 8-min trial, each mouse was placed in the center of the maze and allowed to move freely. An arm entry was recorded when all four paws of the mouse were within the arm. The apparatus was cleaned thoroughly after each trial. Alternation was defined as successive entries into all three arms in an overlapping triplet sequence. Spontaneous alternation was calculated as the ratio of actual alternations to the total possible alternations, and the result was expressed as a percentage.
(§1) Given the observed reduction of CB1R in the R6/1 hippocampus, we hypothesized that pharmacological activation of the remaining CB1Rs could mitigate HD-related memory decline.

WT mice [4] = experiment: Novel object recognition task (NORT) in WT mice (WIN dose selection); assay type: in vivo, mouse; conditions: 13-week-old WT mice, WIN 1 and 4 mg/kg i.p., 10 days
Experimental: Exploration in the NORT followed the same conditions as described for the NOLT. Mice were first habituated to the arena, without objects, for 15 min on two consecutive days. During this phase, spontaneous locomotor activity and time/distance spent in the periphery versus the center of the arena were measured. On the third day (NORT training), mice were allowed to explore two identical objects (B and B′) for 10 min before being returned to their home cage. Twenty-four hours later (NORT testing), one of the familiar objects (B) and a new object (C) were placed in the same location as during the training session, and the mice were allowed to explore for 5 min. The arena was thoroughly cleaned between trials to prevent odor contamination. Animal movements were tracked and recorded with the SMART® Junior software (Panlab, Spain). Exploration times were recorded and used to calculate the discrimination index as indicated above.
as §1

WT mice [5] = experiment: Novel object location task (NOLT) in WT mice (WIN dose selection); assay type: in vivo, mouse; conditions: 13-week-old WT mice, WIN 1 and 4 mg/kg i.p., 10 days
Experimental: NOLT was conducted in a quadrangular open field (40 cm × 40 cm, 40 cm high) with a light intensity of 40 lx at controlled room conditions (19–22 °C, 40%–60% humidity). Mice were first habituated to the arena, which was devoid of objects but included spatial cues attached to the walls, for 15 min per session over two consecutive days. During this phase, spontaneous locomotor activity, as well as the time and the distance spent in the periphery versus the center, were measured. On the third day (NOLT training), two identical objects (A and A′) were placed in adjacent corners of the arena, and mice were allowed to explore for 10 min. Twenty-four hours later (NOLT testing), the object A was placed in the same location, while a new object (A″) was placed in the diagonally opposite corner. During the testing phase, mice were allowed to explore for 5 min. The arena was thoroughly cleaned between trials to eliminate residual odors. Animal movements were tracked and recorded using the SMART® Junior software (Panlab, Spain). Exploration times were recorded to calculate the discrimination index as follows: discriminationindex=Timeexploringnovelobject-Timeexploringfamiliarobject/Timeexploringbothobjects×100\%
as §1

CA1 pyramidal neurons [6] = experiment: Ex vivo patch-clamp: depolarization-induced suppression of inhibition (DSI); assay type: in vivo, mouse; conditions: hippocampal slices of WIN-treated R6/1 mice, n = 17 neurons
young rats = conditions: chronic WIN; cited from earlier work
[7] = tested on: models of vascular dementia and ischemic injury; set-up: method as in PMID 36979335, PMID 29945070; conditions: cited from earlier work
CB1R = assay type: in vivo, mouse; conditions: hippocampus
Experimental: WT and R6/1 mice were deeply anesthetized with ketamine and xylazine (i.p injection; 100 mg/kg and 10 mg/kg, respectively) and immediately perfused transcardially with saline, followed by 4% paraformaldehyde in phosphate buffer. Brains were then removed, post-fixed overnight in the same solution, cryoprotected by immersion in 30% sucrose, and frozen in dry ice-cooled methylbutane. Serial coronal cryostat sections (30 μm) were collected through the entire brain in PBS as free-floating sections and processed as described previously [47].
Sections were rinsed three times in PBS, permeabilized, and blocked in PBS containing 0.3% Triton X-100 and 3% normal goat serum (Pierce Biotechnology, Rockford, IL) for 15 min at room temperature. […]
Stained coronal sections were examined using a Carl Zeiss LSM880 confocal microscope, a 10 × , 40 × and 63 × oil-immersion objective, 4 × digital zoom, and a standard Airy disc pinhole. For each mouse, at least three 30-µm thick coronal sections containing the hippocampal region were analyzed. […] The CB1R-, calbindin- and GAD67-integrated density was quantified with NIH ImageJ2 version 2.9.0/1.53t (Wayne Rasband, NIH). For double-positive quantification, Pearson’s correlation coefficient was calculated using ImageJ2. […]

adult rats = tested on: adult rats; set-up: method as in PMID 12888772; conditions: chronic treatment; cited from earlier work
R6/1 mice = experiment: Y-maze spontaneous alternation in R6/1 mice; assay type: in vivo, mouse; conditions: WIN 1 mg/kg i.p. 10 days
Experimental: To selectively induce CB1R expression in GABAergic neurons, we generated a plasmid for AAV8-mDlx5/6-CNR1. Infectious AAV viral particles were developed by the Viral Vector Production Unit (UPV) of the Universitat Autònoma de Barcelona (UAB). WT and R6/1 mice, aged 10 weeks, were anesthetized with ketamine hydrochloride/xylazine hydrochloride (i.p.; 100 and 10 mg/kg, respectively, Merck) and injected bilaterally in the hippocampus with AAV8-mDlx-CB1R or AAV8-mCherry (Vector Biolabs) (viral concentrations ranging from 1.8 × 10^9 to 1.5 × 10^9). The injection coordinates (in mm) from bregma (anteroposterior and lateral) and from skull (dorsoventral) were as follows: anteroposterior: − 2.0; lateral ± 1.25, and dorsoventral: − 1.3 (CA1). AAVs were injected for over 2 min, and the cannula was left in place for an additional 5 min to allow complete diffusion of the virus before being slowly retracted. Mice were monitored for 1 h post-injection and then returned to the housing facility for 3 weeks. […] For double-positive quantification, Pearson’s correlation coefficient was calculated using ImageJ2. […]
Spontaneous working memory was assessed using the Y-maze test. […] An arm entry was recorded when all four paws of the mouse were within the arm. […] Spontaneous alternation was calculated as the ratio of actual alternations to the total possible alternations, and the result was expressed as a percentage.

[8] = tested on: rat model of cholinergic degeneration; set-up: method as in PMID 39489624; conditions: low-dose WIN; cited from earlier work

Cc1c(C(=O)c2cccc3ccccc23)c2cccc3c2n1[C@H](CN1CCOCC1)CO3 [WIN, WIN 55212–2]
BDNF protein level (BDNF): restored | apical dendritic spine density reduction in CA1 pyramidal neurons (CA1 pyramidal neurons [1]): reversed | time spent in the periphery and the center of the open field arena (WT mice [2]): No adverse effects | total distance traveled during the open field test (WT mice [2]): No adverse effects | working memory (Y-maze) (WT mice [3]): no differences | recognition memory (NORT) (WT mice [4]): no differences | spatial memory (NOLT) (WT mice [5]): no differences | DSI: suppression of IPSC amplitude after 5-s depolarizing step (-70 to 0 mV) (CA1 pyramidal neurons [6]): 52.70% ± 5.65 | cytoskeletal remodeling in the hippocampus (young rats): increased dendritic thickness and branching | neuroprotection [7]: neuroprotective effects | CB1R staining, immunohistochemistry (CB1R; Hdh^Q7/Q111 KI mice, sub-chronic WIN): restored to near WT levels | CB1R levels, immunohistochemistry (CB1R; R6/1 mice, WIN 1 mg/kg i.p. 10 days): comparable to those of WT controls | performance in novel object recognition test (adult rats): did not affect | performance in open field test (adult rats): did not affect | spontaneous alternation performance (Y-maze) (R6/1 mice; presymptomatic stage (11 weeks, Fig. S4d)): significantly enhanced | spontaneous alternation performance (Y-maze) (R6/1 mice; symptomatic stage (13 weeks, Fig. 3d)): significantly enhanced | CB1R activity in the cortex [8]: increase | cognitive performance [8]: improved
